Assay results published in US9718840B2, “Condensed 5-oxazolidinone derivative” (SUMITOMO DAINIPPON PHARMA CO., LTD., priority 2014, dated 2017).
pIC50: −log10 of the molar value.

What was measured:
[1] = molecular target: Human FXIa (Homo sapiens, UniProt P03951); assay: In vitro activated factor XI (FXIa) inhibition test; assay type: biochemical
[2] = test system: Rabbit nail bleeding models; assay: Effect of combined use with antiplatelet drug using rabbit nail bleeding model; assay type: in vivo; settings: alone; for Bleeding time: rabbit, maximum 60 minutes; for Bleeding time (fold-increase): ratio to vehicle group average
Description: Rabbit nail bleeding models were prepared by a modification of the report of Wong et al. (Wong P C. et al., J. Thromb. Haemost. 7: 1313-1320 (2009)). Male rabbits (JW, 1.5 to 3.5 kg) were anesthetized by the inhalation of isoflurane (ISOFLU®, manufactured by DS Pharma Animal Health Co., Ltd.) (introduced anesthesia: 4%, continuous anesthesia: 2 to 3%). For the intravenous administration of a test drug or a vehicle, an indwelling needle was inserted to the auricular vein, and the test drug or the vehicle was promptly intravenously administered (0.67 mL/kg) and then continuously intravenously administered (1 mL/kg/hr). One hour after the start of administration, three posterior toenails were cut and dipped in saline heated to approximately 37° C., and the bleeding time was measured. The bleeding time was defined as a time from the cutting to the arrest of bleeding, and an average value from the three nails was used. The measurement time was 60 minutes at the maximum. If bleeding for 60 minutes or longer was confirmed, the bleeding time was regarded as 60 minutes.

[3] = test system: Rabbit venous thrombus models; assay: Effect of combined use with antiplatelet drug using rabbit AVST model; assay type: in vivo; settings: alone
Description: Rabbit venous thrombus models were prepared by a modification of the report of Wong et al. (Wong P C. et al., J. Pharmacol. Exp. Ther. 292: 351-357 (2000)). […] A tracheostomy tube was inserted to each rabbit, which was then ventilated using a respirator. For the intravenous administration of a test drug and blood collection, catheters were inserted to the right femoral vein and the right femoral artery, respectively. An arteriovenous shunt filled with saline was inserted to the carotid artery and the jugular vein. […] Also, 4-0 silk thread having a length of 5 cm was indwelled in the arteriovenous shunt. Blood was sent for 30 minutes from the carotid artery to the jugular vein via the arteriovenous shunt. The shunt was removed, and the weight of the silk thread covered with thrombus was measured. The weight of the silk thread measured before the experiment was subtracted from the measured weight, and the obtained value was used as a wet thrombus weight. One hour before the open of the arteriovenous shunt, the test drug or a vehicle was promptly intravenously administered (0.67 mL/kg) and then continuously intravenously administered (1 mL/kg/hr). The continuous injection was continued throughout the experiment. […] STA calcium chloride (manufactured by Roche Diagnostics K.K.) was added in an amount equal thereto, and the time required for coagulation was measured.

[4] = test system: Rabbit nail bleeding models; assay: Bleeding time evaluation test using rabbit nail bleeding model; assay type: in vivo; settings: for Bleeding time: Experiment 1 (maximum 30 minutes), rabbit; for Bleeding time (fold-increase): Experiment 1, ratio to vehicle group average
Description: Rabbit nail bleeding models were prepared by a modification of the report of Wong et al. (Wong P C. et al., J. Thromb. Haemost. 7: 1313-1320 (2009)). Male rabbits (JW, 1.5 to 3.5 kg) were anesthetized by the inhalation of isoflurane (ISOFLU®, manufactured by DS Pharma Animal Health Co., Ltd.) (introduced anesthesia: 4%, continuous anesthesia: 2 to 3%).
For the intravenous administration of a test drug or a vehicle, an indwelling needle was inserted to the auricular vein, and the test drug or the vehicle was promptly intravenously administered (0.67 mL/kg) and then continuously intravenously administered (1 mL/kg/hr). One hour after the start of administration, three posterior toenails were cut and dipped in saline heated to approximately 37° C., and the bleeding time was measured. The bleeding time was defined as a time from the cutting to the arrest of bleeding, and an average value from the three nails was used. The measurement time was 30 minutes at the maximum for experiment 1 and 60 minutes at the maximum for experiment 2. In each experiment, if bleeding for 30 minutes or 60 minutes or longer was confirmed, the bleeding time was regarded as 30 minutes or 60 minutes.

[5] = test system: Rabbit venous thrombus models; assay: In vivo antithrombotic effect evaluation test using rabbit (arteriovenous shunt); settings: prompt i.v. + continuous i.v.
Description: Rabbit venous thrombus models were prepared by a modification of the report of Wong et al. (Wong P C. et al., J. Pharmacol. Exp. Ther. 292: 351-357 (2000)). Male rabbits (JW, 2 to 4 kg) were anesthetized by the inhalation of isoflurane (ISOFLU®, manufactured by DS Pharma Animal Health Co., Ltd.) (introduced anesthesia: 4%, continuous anesthesia: 1.5 to 2.5%). A tracheostomy tube was inserted to each rabbit, which was then ventilated using a respirator. For the intravenous administration of a test drug and blood collection, catheters were inserted to the right femoral vein and the right femoral artery, respectively. An arteriovenous shunt filled with saline was inserted to the carotid artery and the jugular vein. The arteriovenous shunt was prepared by connecting Atom extension tubes (4Fr) having lengths of 15 cm and 13 cm to the artery side and the vein side, respectively, of a polyethylene tube (length: 60 cm, outside diameter: 11.1 mm, inside diameter: 7.9 mm). Also, 4-0 silk thread having a length of 5 cm was indwelled in the arteriovenous shunt. Blood was sent for 30 minutes from the carotid artery to the jugular vein via the arteriovenous shunt. The shunt was removed, and the weight of the silk thread covered with thrombus was measured. The weight of the silk thread measured before the experiment was subtracted from the measured weight, and the obtained value was used as a wet thrombus weight. One hour before the open of the arteriovenous shunt, the test drug or a vehicle was promptly intravenously administered (0.67 mL/kg) and then continuously intravenously administered (1 mL/kg/hr). The continuous injection was continued throughout the experiment. Further, an existing anticoagulant dabigatran (antithrombin drug) and rivaroxaban (FXa inhibitor) were tested as control drugs.
In order to measure aPTT of blood samples as an index for the intrinsic coagulation pathway, blood was collected before administration and immediately before cessation of blood flow, and plasma was prepared using 3.2% sodium citrate. After incubation at 37° C. for 6 minutes, an STA reagent Cephascreen (for aPTT assay; manufactured by Roche Diagnostics K.K.) was added in an amount equal thereto, and the mixture was further incubated for 4 minutes. STA calcium chloride (manufactured by Roche Diagnostics K.K.) was added in an amount equal thereto, and the time required for coagulation was measured.
In order to measure prothrombin time (PT) of blood samples as an index for the extrinsic coagulation pathway, blood was collected before administration and immediately before cessation of blood flow, and plasma was prepared using 3.2% sodium citrate. After incubation at 37° C. for 10 minutes, Neoplastin Plus (for PT assay; manufactured by Roche Diagnostics K.K.) was added in a double amount, and the time required for coagulation was measured.

[6] = dose 0.67 + 1.0 mg/kg + mg/kg/h i.v.
[7] = dose 0.03 + 0.045 mg/kg + mg/kg/h i.v.
[8] = dose 0.1 + 0.15 mg/kg + mg/kg/h i.v.
[9] = dose 0.3 + 0.45 mg/kg + mg/kg/h i.v.
[10] = dose 0.03 + 0.045 mg/kg + mg/kg/h
[11] = dose 0.1 + 0.15 mg/kg + mg/kg/h
[12] = dose 0.3 + 0.45 mg/kg + mg/kg/h

Sequence of Human FXIa (P03951 388-625 limits assumed): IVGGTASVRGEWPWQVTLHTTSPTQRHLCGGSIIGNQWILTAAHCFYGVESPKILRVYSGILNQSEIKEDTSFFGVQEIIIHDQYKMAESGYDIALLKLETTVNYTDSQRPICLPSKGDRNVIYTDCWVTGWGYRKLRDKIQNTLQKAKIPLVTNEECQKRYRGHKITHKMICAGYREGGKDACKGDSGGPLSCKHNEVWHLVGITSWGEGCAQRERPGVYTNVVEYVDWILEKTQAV
Sequence of Human FXIa (P03951 19-387 partner limits assumed): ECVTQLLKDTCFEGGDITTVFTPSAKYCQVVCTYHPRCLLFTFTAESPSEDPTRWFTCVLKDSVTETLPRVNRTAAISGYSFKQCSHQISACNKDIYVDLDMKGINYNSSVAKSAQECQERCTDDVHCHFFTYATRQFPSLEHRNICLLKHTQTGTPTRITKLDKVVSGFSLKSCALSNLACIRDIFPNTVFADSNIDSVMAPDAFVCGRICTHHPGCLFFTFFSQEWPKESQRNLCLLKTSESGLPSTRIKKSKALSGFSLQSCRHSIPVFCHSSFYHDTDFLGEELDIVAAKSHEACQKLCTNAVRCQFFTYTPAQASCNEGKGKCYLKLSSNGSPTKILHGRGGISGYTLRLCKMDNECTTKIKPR

Structure (SMILES): N[C@H](CF)[C@H]1CC[C@H](C(=O)N2CC[C@@H](C3CCCCC3)[C@H]2C(=O)Nc2ccc3[nH]c(C(=O)O)nc3c2)CC1
- pIC50 [1]: 7.47

Structure (SMILES): N[C@H](CF)[C@H]1CC[C@H](C(=O)N2CC[C@@H](c3ccccc3)[C@H]2C(=O)Nc2ccc3[nH]c(C(=O)O)cc3c2)CC1
- pIC50 [1]: 7.82

Structure (SMILES): N[C@H](CF)[C@H]1CC[C@H](C(=O)N2CC[C@H](c3ccccc3)[C@H]2C(=O)Nc2ccc3[nH]c(C(=O)O)cc3c2)CC1
- pIC50 [1]: 7.70

Structure (SMILES): CC(=O)Oc1ccccc1C(=O)O [Aspirin]
- Bleeding time [2, 6]: 1087 ± 522 s
- Bleeding time (fold-increase) [2, 6]: 1.9 ± 0.9 fold-increase
- PT (ratio) [3, 6]: 0.99 ± 0.01 ratio
- Thrombus weight [3, 6]: 96 ± 9 mg
- aPTT (ratio) [3, 6]: 0.97 ± 0.01 ratio

Structure (SMILES): O=C(NC[C@H]1CN(c2ccc(N3CCOCC3=O)cc2)C(=O)O1)c1ccc(Cl)s1 [Rivaroxaban]
- Bleeding time [4, 7]: 1031 ± 319 s
- Bleeding time [4, 8]: 1369 ± 334 s
- Bleeding time [4, 9]: 1733 ± 110 s
- Bleeding time (fold-increase) [4, 7]: 2.3 ± 0.7 fold-increase
- Bleeding time (fold-increase) [4, 8]: 3.0 ± 0.7 fold-increase
- Bleeding time (fold-increase) [4, 9]: 3.8 ± 0.2 fold-increase
- Bleeding time [2, 7]: 1614 ± 869 s
- Bleeding time [2, 8]: 2445 ± 964 s
- Bleeding time (fold-increase) [2, 7]: 2.8 ± 1.5 fold-increase
- Bleeding time (fold-increase) [2, 8]: 4.2 ± 1.7 fold-increase
- PT (ratio) [3, 7]: 1.23 ± 0.05 ratio
- Thrombus weight [3, 7]: 92 ± 19 mg
- aPTT (ratio) [3, 7]: 1.22 ± 0.06 ratio
- PT (ratio) [3, 8]: 1.73 ± 0.15 ratio
- Thrombus weight [3, 8]: 58 ± 9 mg
- aPTT (ratio) [3, 8]: 1.50 ± 0.09 ratio
- PT (ratio) [5, 10]: 1.23 ± 0.05 ratio
- Thrombus weight [5, 10]: 92 ± 19 mg
- aPTT (ratio) [5, 10]: 1.22 ± 0.06 ratio
- PT (ratio) [5, 11]: 1.73 ± 0.15 ratio
- Thrombus weight [5, 11]: 58 ± 9 mg
- aPTT (ratio) [5, 11]: 1.50 ± 0.09 ratio
- PT (ratio) [5, 12]: 2.87 ± 0.33 ratio
- Thrombus weight [5, 12]: 29 ± 10 mg
- aPTT (ratio) [5, 12]: 1.87 ± 0.14 ratio
